Where two headings read alike, the source gives them in different places.

The values that follow come from patent US20160045459A1, “Pharmaceutical Combination” (Gruenenthal GmbH, priority 2006, published 2016).

The experiment has as its system rat. As to the kind of experiment: Randall-Selitto test in rats (Carrageenin-induced oedema, model for inflammatory pain), with isobolographic analysis of fixed ratio combinations. The format is in vivo. Conditions: for ED50: Rattus norvegicus, confidence interval in brackets; for timepoint of peak effect: substance applied alone, A i.v., NSAIDs i.p. On the procedure: The weight ratios of the components (a) and (b) that will lead to a supra-additive effect (synergistic effect) of the inventive pharmaceutical composition may be determined via the test of Randall and Selitto as described in Arch. Int. Pharmacodyn., 1957, 111: 409 to 419, which is a model for inflammatory pain. The respective part of the literature is hereby incorporated by reference and forms part of the present disclosure.
By means of injection of 0.1 ml of Carrageenin-suspension ventrally into a hind paw of a rat an oedema is induced, on which pain is generated 4 hours later by continuously increasing pressure with a stamp (2 mm tip diameter). The antinociceptive and antihyperalgesic activity of the tested substance is determined at different points in time after administration of the substance. The measured value to be determined and at the same time also the end point of the pain test is the pressure at which the vocalisation reaction of the rat occurs. The percentage maximum possible effect (% MPE) is calculated. The maximum pressure of the stamp is 250 g. The group size is n=10.
The interactions studies presented herein were performed using equieffective doses of the two components, calculated from the ratio of the respective ED50 values of the components if administered alone.
The application route was intravenous (i.v.) for (1R,2R)-3-(3-Dimethylamino-1-ethyl-2-methyl-propyl)-phenol (A) and intraperitoneal (i.p.) for the NSAIDs Diclofenac-sodium and Ibuprofen. […] According to their respective timepoint of peak effect, (1R,2R)-3-(3-Dimethylamino-1-ethyl-2-methyl-propyl)-phenol was applied 15 min and Diclofenac-Sodium and Ibuprofen 30 min before timepoint of measurement of the interaction-experiments (i. e. Diclofenac-Sodium or Ibuprofen were applied 15 min before (1R,2R)-3-(3-Dimethylamino-1-ethyl-2-methyl-propyl)-phenol, respectively). Thus, the time point of ED50 calculation of the combination corresponds to the timepoint of the peak effect of the respective compound.
The application route was intravenous (i.v.) for (1R,2R)-3-(3-Dimethylamino-1-ethyl-2-methyl-propyl)-phenol (A) and intraperitoneal (i.p.) for the NSAIDs (+)-Naproxen, Ketoprofen and Metamizol-Sodium. […] According to their respective timepoint of peak effect, (1R,2R)-3-(3-Dimethylamino-1-ethyl-2-methyl-propyl)-phenol was applied 15 min and (+)-Naproxen, Ketoprofen and Metamizol-Sodium 45 min before timepoint of measurement of the interaction-experiments (i. e. (+)-Naproxen, Ketoprofen and Metamizol-Sodium were applied 30 min before (1R,2R)-3-(3-Dimethylamino-1-ethyl-2-methyl-propyl)-phenol, respectively). Thus, the time point of ED50 calculation of the combination corresponds to the timepoint of the peak effect of the respective compound.

Setting [1] is: ip, 0.75 h, study B, i.p., 45 min p. appl. (peak effect), read-out: ED50 of the NSAID applied alone.
Setting [2] is: ip, 0.5 h, study A, i.p., 30 min p. appl. (peak effect), read-out: ED50 of the NSAID applied alone.

As to `CC(C(=O)O)c1cccc(C(=O)c2ccccc2)c1` (centres unmarked) [Ketoprofen, 2-(3-Benzoylphenyl)propanoic acid], the “timepoint of peak effect” value is given as 45 min p. appl. For the same compound, the ED50 under setting [1] came to 224 mg/kg. For the same compound, where the note is “i.p.”, the “analgesic effect of the NSAID applied alone” value (from here on “analgesic effect”) is given as “dose-dependent analgesic effects”.

For the compound `CC1C(N(C)CS(=O)(=O)[O-])C(=O)N(c2ccccc2)N1C.[Na+]` (centres unmarked) [Metamizol-Sodium, Sodium ((1,5-dimethyl-3-oxo-2-phenylpyrazolidin-4-yl)(methyl)amino)methanesulfonate], the “timepoint of peak effect” value was 45 min p. appl. Moreover, the ED50 under setting [1] came out at 88.1 mg/kg. The “analgesic effect” value (i.p.) was “dose-dependent analgesic effects”.

As for `O=C(O)Cc1ccccc1Nc1c(Cl)cccc1Cl` [Diclofenac-Sodium], the “timepoint of peak effect” value is 30 min p. appl. Besides, the ED50 under setting [2] turned out to be 145 mg/kg. Besides, the “analgesic effect” value (i.p.) was “dose-dependent analgesic effects”.

For `CC(C)Cc1ccc(C(C)C(=O)O)cc1` (centres unmarked) [Ibuprofen, 2-(4-Isobutylphenyl)propanoic acid], the “timepoint of peak effect” value turned out to be 30 min p. appl. Moreover, the ED50 under setting [2] came to 139 mg/kg. Further, the “analgesic effect” value (i.p.) is on record as “dose-dependent analgesic effects”.

Take `CC[C@@H](c1cccc(O)c1)[C@@H](C)CN(C)C` [A, (1R,2R)-3-(3-Dimethylamino-1-ethyl-2-methyl-propyl)-phenol]: the ED50 reads like this: (iv, 0.25 h, read-out: ED50 of A applied alone, study A, i.v., 15 min p. appl. (peak effect)) 1.88 mg/kg; (iv, 0.25 h, read-out: ED50 of A applied alone, study B, i.v., 15 min p. appl. (peak effect)) 1.88 mg/kg.
